Tests used:
Test in all cases: relative viability (nuclei count vs DMSO), 5 days (fraction); higher = more cells survive
Tivantinib + Foretinib = compound: O=C1NC(=O)[C@@H](c2cn3c4c(cccc24)CCC3)[C@@H]1c1c[nH]c2ccccc12 [Tivantinib] + COc1cc2c(Oc3ccc(NC(=O)C4(C(=O)Nc5ccc(F)cc5)CC4)cc3F)ccnc2cc1OCCCN1CCOCC1 [Foretinib] (partner 0.25 µM)
Procedure, shortened: (§1)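 Relative viability is defined as nuclei in treated wells over nuclei in vehicle wells. Duplicate plates were run and medians reported. Lung cancer cell lines in 1536-well plates were dosed by pin tool one day after seeding, with one drug or with a fixed anchor-drug dose plus five library-drug doses (not always all listed) in √10 steps, and nuclei were counted after 5 days.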

Crenolanib + Dasatinib = compound: CC1(COc2ccc3c(c2)ncn3-c2ccc3cccc(N4CCC(N)CC4)c3n2)COC1 [Crenolanib] + Cc1nc(Nc2ncc(C(=O)Nc3c(C)cccc3Cl)s2)cc(N2CCN(CCO)CC2)n1 [Dasatinib] (partner 0.075 µM)
Procedure, shortened: as §1

Crenolanib + Bortezomib = compound: CC1(COc2ccc3c(c2)ncn3-c2ccc3cccc(N4CCC(N)CC4)c3n2)COC1 [Crenolanib] + CC(C)C[C@H](NC(=O)[C@H](Cc1ccccc1)NC(=O)c1cnccn1)B(O)O [Bortezomib] (partner 0.002 µM)
Procedure, shortened: as §1

Tivantinib + Trametinib = compound: O=C1NC(=O)[C@@H](c2cn3c4c(cccc24)CCC3)[C@@H]1c1c[nH]c2ccccc12 [Tivantinib] + CC(=O)Nc1cccc(-n2c(=O)n(C3CC3)c(=O)c3c(Nc4ccc(I)cc4F)n(C)c(=O)c(C)c32)c1 [Trametinib] (partner 0.02 µM)
Procedure, shortened: as §1

Cell Line | relative viability (Tivantinib + Foretinib; first compound 0.01 µM) | relative viability (Tivantinib + Foretinib; first compound 0.03162 µM) | relative viability (Tivantinib + Foretinib; first compound 0.1 µM) | relative viability (Tivantinib + Foretinib; first compound 0.3162 µM) | relative viability (Crenolanib + Dasatinib; first compound 0.01 µM) | relative viability (Crenolanib + Dasatinib; first compound 0.03162 µM) | relative viability (Crenolanib + Dasatinib; first compound 0.1 µM) | relative viability (Crenolanib + Dasatinib; first compound 0.3162 µM) | relative viability (Crenolanib + Dasatinib; first compound 1 µM) | relative viability (Crenolanib + Bortezomib; first compound 0.01 µM) | relative viability (Crenolanib + Bortezomib; first compound 0.03162 µM) | relative viability (Crenolanib + Bortezomib; first compound 0.1 µM) | relative viability (Crenolanib + Bortezomib; first compound 0.3162 µM) | relative viability (Crenolanib + Bortezomib; first compound 1 µM) | relative viability (Tivantinib + Trametinib; first compound 0.01 µM) | relative viability (Tivantinib + Trametinib; first compound 0.03162 µM) | relative viability (Tivantinib + Trametinib; first compound 0.1 µM) | relative viability (Tivantinib + Trametinib; first compound 0.3162 µM)
NCI-H2023 | 0.787 | 0.841 | 0.816 | 0.516 | 0.656 | 0.603 | 0.669 | 0.743 | 0.567 | 1.03 | 0.95 | 0.934 | 1.14 | 0.578 | 0.593 | 0.551 | 0.433 | 0.414
LU99A | 0.692 | 0.84 | 0.737 | 0.6 | 0.492 | 0.579 | 0.669 | 0.581 | 0.522 | 1.23 | 1.28 | 0.983 | 1.34 | 1.05 | 0.436 | 0.494 | 0.505 | 0.521
NCI-H3122 | 0.947 | 0.982 | 0.909 | 0.951 | 0.862 | 0.73 | 0.782 | 0.963 | 0.972 | 1.08 | 1.01 | 1.04 | 1.05 | 1.16 | 0.219 | 0.216 | 0.199 | 0.202
LOU-NH91 | 0.901 | 0.925 | 0.939 | 0.573 | 0.598 | 0.53 | 0.527 | 0.559 | 0.593 | 0.336 | 0.474 | 0.45 | 0.49 | 0.513 | 0.724 | 0.762 | 0.81 | 0.691
NCI-H647 | 1.25 | 1.18 | 1.12 | 1.21 | 0.175 | 0.209 | 0.196 | 0.189 | 0.201 | 1.03 | 0.94 | 0.974 | 1.16 | 0.888 | 0.462 | 0.411 | 0.416 | 0.369
NCI-H838 | 1 | 1.07 | 0.992 | 1.07 | 0.262 | 0.294 | 0.273 | 0.28 | 0.219 | 0.774 | 0.796 | 0.984 | 0.77 | 0.566 | 0.542 | 0.501 | 0.469 | 0.527
HARA | 0.864 | 0.795 | 0.935 | 0.643 | 0.234 | 0.256 | 0.3 | 0.246 | 0.292 | 1.17 | 1.1 | 1.09 | 1.13 | 1.16 | 0.66 | 0.633 | 0.776 | 0.371
LXF-289 | 0.96 | 0.927 | 0.95 | 0.983 | 0.194 | 0.228 | 0.253 | 0.237 | 0.229 | 1.07 | 0.996 | 0.935 | 1 | 0.95 | 0.628 | 0.631 | 0.628 | 0.669
HOP-62 | 1.17 | 1.02 | 1.06 | 1.14 | 0.658 | 0.703 | 0.578 | 0.769 | 0.684 | 1.01 | 0.488 | 0.743 | 0.317 | 0.309 | 0.458 | 0.346 | 0.356 | 0.37
BEN | 0.602 | 0.535 | 0.616 | 0.559 | 0.281 | 0.256 | 0.363 | 0.345 | 0.323 | 0.821 | 0.644 | 0.733 | 0.881 | 0.761 | 1.13 | 0.94 | 1.01 | 0.769
NCI-H2347 | 0.94 | 1.12 | 0.712 | 1.05 | 0.31 |  |  | 0.278 | 0.295 | 1.16 | 0.724 |  | 0.727 | 1.19 | 0.246 | 0.316 | 0.231 | 0.248
201T | 1.16 | 1.01 | 1.02 | 0.921 | 0.603 | 0.602 | 0.569 | 0.528 | 0.614 | 1.06 | 1.12 | 1.06 | 1.04 | 1.07 | 0.694 | 0.713 | 0.729 | 0.69
NCI-H520 | 0.869 | 0.792 | 0.655 | 0.708 | 0.244 | 0.194 | 0.197 | 0.244 | 0.309 | 0.481 | 0.528 | 0.824 | 0.779 | 0.628 | 0.798 | 0.723 | 0.576 | 0.701
NCI-H727 | 0.829 | 0.857 | 0.629 | 0.732 | 0.348 | 0.364 | 0.338 | 0.347 | 0.49 | 0.905 | 0.92 | 0.821 | 0.869 | 0.991 | 0.413 | 0.343 | 0.398 | 
HCC-366 | 0.89 | 0.852 | 0.929 | 0.912 | 0.655 | 0.662 | 0.593 | 0.648 | 0.519 | 1.01 | 1.1 | 0.902 | 1.12 | 0.949 | 0.355 | 0.523 | 0.338 | 0.332
NCI-H1650 | 1.08 | 1.11 | 1.02 | 0.972 | 0.301 | 0.338 | 0.29 | 0.285 | 0.32 | 0.217 | 0.194 | 0.197 | 0.205 | 0.203 | 0.451 | 0.663 | 0.666 | 0.536
LCLC-97TM1 | 0.993 | 0.928 | 0.911 | 0.888 | 0.877 | 0.883 | 0.857 | 0.949 | 0.67 | 0.454 | 0.396 | 0.69 | 0.896 | 0.699 | 0.211 | 0.218 | 0.189 | 0.178
NCI-H460 | 0.935 | 1.06 | 0.94 | 0.97 | 0.506 | 0.461 | 0.531 | 0.565 | 0.522 | 1.05 | 1.2 | 1.01 | 1.6 | 0.954 | 0.172 | 0.114 | 0.286 | 0.169
H3255 | 0.806 | 0.933 | 0.802 |  | 0.323 | 0.266 | 0.376 | 0.422 | 0.338 | 0.89 | 0.543 | 0.765 | 0.7 | 0.759 |  | 0.5 | 0.642 | 0.234

From the supplement of paper PMC10307832
